{"source": "paper PMC3410613", "about": "(Frontiers in Plant Science, 2012)", "target": "T1, A. thaliana PII (H6PII-tp) (Arabidopsis thaliana, UniProt Q9ZST4)", "T1 sequence (Q9ZST4 62-196)": "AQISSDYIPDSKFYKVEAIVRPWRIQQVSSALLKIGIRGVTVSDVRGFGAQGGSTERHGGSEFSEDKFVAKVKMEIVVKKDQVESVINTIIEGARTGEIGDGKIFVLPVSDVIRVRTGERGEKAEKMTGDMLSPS", "assay": "isothermal titration calorimetry", "assay_type": "binding"}
{"smiles": "O=C(O)CCC(=O)C(=O)O", "note": "[2OG, 2-oxoglutarate]", "values": [{"measurement": "Kd", "value": "111 ± 3.4", "unit": "µM"}]}
